Data from US20230150951A1, “2,5- OR 2,6-DISUBSTITUTED HYDROQUINONE DERIVATIVES WITH AT LEAST ONE CARBOXY, SULFO OR AMIDO GROUP USEFUL AS MEDICAMENTS” (OM PHARMA SA, priority 2020, published 2023).
Read-outs that look alike come from different tables or passages of the source.

Legend:
Format in all cases: cell-based
[1] = tested on: IL-4; experiment: Cytokine release after LPS induction on human whole blood: IL-4
Procedure: (§1) Aim of this in vitro method is to assess compounds effects on release of a panel of cytokines from whole blood following lipopolysaccharide (LPS) induced inflammatory reaction. Whole blood was incubated with compounds for 1 h prior to LPS induction. Cytokine levels in blood were measured using a multiplex FACS-based panel.
(§2) IC50 values determined for the tested compounds expressed in microM [μM] and the values for the inhibition of cytokines were listed for each compound.
(§3) Effect on cytokines release after LPS induction was performed on the compounds dissolved in DMSO or H2O to reach 10-fold concentrated stock solutions and dissolved in culture media.
(§4) Test system: Whole blood was removed from a single donor (into lithium heparin coated tubes; BD Vacutainer; 367886) and diluted 1:5 with RPMI 1640 (Thermo Fisher, 61870036). Within 30 minutes of sampling, blood was incubated with compounds for 1 h prior to LPS stimulation (O111:B4—Sigma L4391; 10 ng/ml final concentration). Stimulation continued under standard cell culture conditions (37° C. with 5% CO2) overnight (18 h), after which plates were centrifuged and supernatant removed and frozen at −80° C. until used for analyses.
(§5) Dilution of test compounds: 10×concentrated solutions (concerning to the final assay concentrations) of each test compound were prepared with the appropriate solvent (in DMSO or in water). These 10× compound solutions (10 μl) were then added to 90 μl pre-diluted whole blood (whole blood: RPMI1640, 1:5) resulting in the final assay concentration.
(§6) Test method: Diluted whole blood (80 μl) was pre-incubated with compounds (10 μl) to give final assay concentrations of 100, 30, 10, 3, 1, 0.3 and 0.1×10^−6M. Blood was incubated at 37° C. with 5% CO2 for 1 h. LPS was diluted in cell culture media to a concentration of […]; 10 μl was added to the whole blood to give a final concentration of 10 ng/ml. Plates were incubated at 37° C. for 18 h. Plates were centrifuged at 3,000 RPM for 5 minutes at 4° C. and supernatant removed and frozen at −80° C. until FACS analysis was carried out.
(§7) Cytokine release was measured using a custom multiplex system (ELISA Genie) according to manufacturers instructions. Prepared samples were run on an Attune NxT flow cytometer (Thermo Fisher).
(§8) Quantification of cytokine release inhibition: known concentration standards were run as part of the cytokine panel to allow quantification of each cytokine concentration in each sample. This was carried out using FCAP Array v3.0 software.
(§9) Results: The dose response relationship on cytokine release following LPS induction of inflammatory response in whole blood was assessed for all compounds. IC50 values were determined for each compound for a panel of cytokines (GM-CSF, IFN-gamma, IL-1beta, IL-2, IL-4, IL-5, IL-6, IL-8, IL-9, IL-10, IL-12p40, IL-13, IL-17A, IL-17F, IL-18, IL-21, IL-22, IL-33, TGF-beta, TNF-alpha, TNF-beta).

[2] = tested on: IL-17F; experiment: Cytokine release after LPS induction on human whole blood: IL-17F
Procedure: as §1, §2, §3, §4, §5, §6, §7, §8, §9

[3] = molecular target: T1, FGF-2 (Homo sapiens, UniProt P09038); experiment: FGF-2 induced sprouting of HUVEC, spheroid-based cellular angiogenesis assay; conditions: FGF-2 25 ng/mL preincubated with compound, 24 h
T1 construct: purchased Peprotech 100-18C
In short: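 Compound (final 100 down to 1.56×10^−6 M) was mixed with growth factor (final 25 ng/mL) for 30 min at 37°C, then added onto collagen-embedded 400-cell HUVEC spheroids.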

[4] = Homo sapiens, LPS 10 ng/ml, 18 h, read-out: Whole Blood: IL-4 IC50
[5] = human whole blood, inhibition of LPS induced inflammation, read-out: IC50 IL-4
[6] = Homo sapiens, LPS 10 ng/ml, 18 h, read-out: Whole Blood: IL-17F IC50
[7] = human whole blood, inhibition of LPS induced inflammation, read-out: IC50 IL-17F

T1 sequence (P09038 134-288): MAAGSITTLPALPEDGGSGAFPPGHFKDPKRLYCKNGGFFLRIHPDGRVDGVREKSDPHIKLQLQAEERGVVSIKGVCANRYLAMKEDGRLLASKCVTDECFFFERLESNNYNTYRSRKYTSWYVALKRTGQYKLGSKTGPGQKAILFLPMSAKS

IC50 [1, 4] [µM] | IC50 [1, 5] [µM] | IC50 [2, 6] [µM] | IC50 [2, 7] [µM] | IC50 [3] [µM] | SMILES | IC50 ([1]; Homo sapiens, 18 h, read-out: Whole Blood: IL-4 IC50) [µM] | IC50 ([1]; Homo sapiens, read-out: IC50 IL-4) [µM] | IC50 ([2]; Homo sapiens, 18 h, read-out: Whole Blood: IL-17F IC50) [µM] | IC50 ([2]; Homo sapiens, read-out: IC50 IL-17F) [µM]
> 100 | 100 | 14.7 | 14.7 | 39 | O=C(O)c1cc(O)c(C(=O)Nc2ccccc2C(=O)O)cc1O [Ia-001a, 4-(2-carboxyphenylaminocarbonyl)-2,5-dihydroxybenzoic acid] | – | – | – | –
> 100 | 100 | 46.5 | 46.5 | 20 | O=C(O)c1cc(O)c(C(=O)Nc2ccccc2-c2nnn[nH]2)cc1O [Ia-001a-Tz, 4-(2-(1H-tetrazol-5-yl)phenyl-aminocarbonyl)-2,5-dihydroxybenzoic acid] | – | – | – | –
> 100 | 100 | 89.7 | 89.7 | 13 | O=C(O)c1cc(O)c(C(=O)Nc2ccccc2S(=O)(=O)O)cc1O [Ia-001c, 2,5-dihydroxy-4-(2-sulfophenylaminocarbonyl)benzoic acid] | – | – | – | –
> 100 | 100 | 83.9 | 83.9 | 45 | O=C(O)c1cc(O)c(C(=O)Nc2ccc(-c3nnn[nH]3)cc2)cc1O [Ia-003a-Tz, 4-(4-(1H-tetrazol-5-yl)phenyl-aminocarbonyl)-2,5-dihydroxybenzoic acid] | – | – | – | –
> 100 | 100 | 0.15 | 0.15 | 9.3 | O=C(O)c1cc(NC(=O)c2cc(O)c(C(=O)O)cc2O)cc(C(=O)O)c1 [Ia-015a, 5-(4-carboxy-2,5-dihydroxybenzamido)isophthalic acid] | – | – | – | –
> 100 | 100 | > 100 | 100 | 3.8 | O=C(O)c1cc(NC(=O)c2cc(O)c(C(=O)O)cc2O)cc(NC(=O)c2cc(O)c(C(=O)O)cc2O)c1 [Ib-010a, 3,5-bis(2,5-dihydroxy-4-carboxybenzoylamino)benzoic acid] | – | – | – | –
> 100 | 100 | 34.2 | 34.2 | – | CCOC(=O)c1cc(NC(=O)c2cc(O)c(C(=O)OCC)cc2O)cc(NC(=O)c2cc(O)c(C(=O)OCC)cc2O)c1 [Ib-010a-E3, ethyl 3,5-bis(2,5-dihydroxy-4-ethoxycarbonylbenzoylamino)benzoate] | – | – | – | –
> 100 | – | 0.15 | – | 70 | O=C(Nc1ccccc1-c1nnn[nH]1)c1cc(O)c(C(=O)Nc2ccccc2-c2nnn[nH]2)cc1O [Ic-001aTz2, N1,N4-bis(2-(1H-tetrazol-5-yl)phenyl)-2,5-dihydroxyterephthalamide] | – | – | – | –

More lines, now with the values behind:

SMILES | IC50 [1, 4] [µM] | IC50 [1, 5] [µM] | IC50 [2, 6] [µM] | IC50 [2, 7] [µM] | IC50 [3] [µM] | IC50 ([1]; Homo sapiens, 18 h, read-out: Whole Blood: IL-4 IC50) [µM] | IC50 ([1]; Homo sapiens, read-out: IC50 IL-4) [µM] | IC50 ([2]; Homo sapiens, 18 h, read-out: Whole Blood: IL-17F IC50) [µM] | IC50 ([2]; Homo sapiens, read-out: IC50 IL-17F) [µM]
O=C(O)Cc1cc(O)c(C(=O)Nc2ccccc2-c2nnn[nH]2)cc1O [IIIa-001aTz] | > 100 | 100 | 0.16 | 0.16 | 14 | – | – | – | –
O=C(O)Cc1cc(O)c(C(=O)Nc2c(C(=O)O)cccc2C(=O)O)cc1O [IIIa-013a, 2-(4-(carboxymethyl)-2,5-dihydroxybenzamido)isophthalic acid] | > 100 | 100 | 0.41 | 0.41 | 31 | – | – | – | –
CC(=O)N(Cc1cc(O)c(C(=O)O)cc1O)Cc1cc(O)c(C(=O)O)cc1O [IIIc-057a, N,N-Bis(4-carboxy-2,5-dihydroxyphenylmethyl)acetamide] | > 100 | 100 | 5.06 | 5.06 | 77 | – | – | – | –
O=C(O)c1cc(O)c(CN(Cc2cc(O)c(C(=O)O)cc2O)Cc2cc(O)c(C(=O)O)cc2O)cc1O [IIIc-061a, Tris(4-carboxy-2,5-dihydroxyphenylmethyl)amine] | > 100 | 100 | 0.32 | 0.32 | 7.6 | – | – | – | –
O=C(O)c1ccccc1CNC(=O)c1cc(O)cc(C(=O)O)c1O [IIa-053a, 3-(2-Carboxyphenylmethylaminocarbonyl)-2,5-dihydroxybenzoic acid] | > 100 | 100 | 28.8 | 28.8 | 18 | – | – | – | –
O=C(O)c1cc(NC(=O)c2cc(O)cc(C(=O)Nc3ccc(O)c(C(=O)O)c3)c2O)ccc1O [IIc-007a, 5-(3-(3-carboxy-4-hydroxyphenylaminocarbonyl)-2,5-dihydroxybenzamido)-2-hydroxy benzoic acid] | > 100 | 100 | 0.26 | 0.26 | 91 | – | – | – | –
O=C(O)c1cc(O)ccc1NC(=O)c1cc(O)cc(C(=O)Nc2ccc(O)cc2C(=O)O)c1O [IIc-009a, 2-(3-(2-carboxy-4-hydroxyphenylaminocarbonyl)-2,5-dihydroxybenzamido)-5-hydroxyl benzoic acid] | > 100 | 100 | 0.13 | 0.13 | – | – | – | – | –
O=C(O)c1cc(O)cc(CSCc2cc(O)cc(C(=O)O)c2O)c1O [IVc-058a, 3-((2,5-Dihydroxy-3-carboxyphenyl)methylthiomethyl)-2,5-dihydroxybenzoic acid] | > 100 | 100 | 86.8 | 86.8 | 4.9 | – | – | – | –
O=C(O)c1cc(O)cc(CS(=O)(=O)Cc2cc(O)cc(C(=O)O)c2O)c1O [IVc-059a, 3-((2,5-Dihydroxy-3-carboxyphenyl)methylsulfonylmethyl)-2,5-dihydroxybenzoic acid] | > 100 | 100 | > 100 | 100 | 2.7 | – | – | – | –
COC(=O)c1cc(OC(C)=O)cc(CS(=O)(=O)Cc2cc(OC(C)=O)cc(C(=O)OC)c2OC(C)=O)c1OC(C)=O [IVc-059a-E2-A4] | > 100 | 100 | 25.8 | 25.8 | ≥ 200 | – | – | – | –
O=C(O)c1cc(NC(=O)c2cc(O)c(C(=O)Nc3ccccc3-c3nnn[nH]3)cc2O)ccc1O [Ic-001a-Tz/004a, 5-(4-(2-(1H-tetrazol-5-yl)phenylaminocarbonyl)-2,5-dihydroxybenzamido)-2-hydroxy benzoic acid] | – | – | – | – | 87 | > 100 | 100 | 2.4 | 2.4
O=C(O)c1cc(NC(=O)c2cc(O)c(C(=O)Nc3ccc(O)c(C(=O)O)c3)cc2O)ccc1O [Ic-007a, 5-(4-(3-carboxy-4-hydroxyphenylaminocarbonyl)-2,5-dihydroxybenzamido)-2-hydroxy benzoic acid] | > 100 | 100 | 22.9 | 22.9 | – | – | – | – | –
